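A five-concentration, 48-hour dose response in 96-well plates underlies each endpoint, interpolated linearly between surrounding concentrations. The concentration for 50% growth inhibition is given as GI50. TGI: total growth inhibition.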
Assays:
Test in all cases: NCI-60 cell line screen, 48 h
UO-31 renal = test system: UO-31 renal
EKVX NSCLC = test system: EKVX NSCLC
NCI-H226 lung = test system: NCI-H226 lung
OVCAR-3 ovarian = test system: OVCAR-3 ovarian
SK-OV-3 ovarian = test system: SK-OV-3 ovarian
CCRF-CEM leukemia = test system: CCRF-CEM leukemia
HS 578T breast = test system: HS 578T breast
UACC-62 melanoma = test system: UACC-62 melanoma
HL-60(TB) leukemia = test system: HL-60(TB) leukemia
SW-620 colon = test system: SW-620 colon
U251 CNS = test system: U251 CNS
NCI-H23 lung = test system: NCI-H23 lung
MDA-MB-231 breast = test system: MDA-MB-231 breast
HCT-15 colon = test system: HCT-15 colon
DU-145 prostate = test system: DU-145 prostate
SNB-19 CNS = test system: SNB-19 CNS
LOX IMVI melanoma = test system: LOX IMVI melanoma
BT-549 breast = test system: BT-549 breast
SNB-75 CNS = test system: SNB-75 CNS
MDA-MB-435 = test system: MDA-MB-435
RXF 393 renal = test system: RXF 393 renal
SF-295 CNS = test system: SF-295 CNS
UACC-257 melanoma = test system: UACC-257 melanoma
HT29 colon = test system: HT29 colon
RPMI-8226 leukemia = test system: RPMI-8226 leukemia
SF-539 CNS = test system: SF-539 CNS
COLO 205 colon = test system: COLO 205 colon
IGROV1 ovarian = test system: IGROV1 ovarian
SN12C renal = test system: SN12C renal
PC-3 prostate = test system: PC-3 prostate
MCF7 breast = test system: MCF7 breast
NCI-H522 lung = test system: NCI-H522 lung
NCI/ADR-RES ovarian = test system: NCI/ADR-RES ovarian
NCI-H460 lung = test system: NCI-H460 lung
SK-MEL-5 melanoma = test system: SK-MEL-5 melanoma
HOP-62 NSCLC = test system: HOP-62 NSCLC
A549 NSCLC = test system: A549 NSCLC
ACHN renal = test system: ACHN renal
SF-268 CNS = test system: SF-268 CNS
T-47D breast = test system: T-47D breast
SK-MEL-2 melanoma = test system: SK-MEL-2 melanoma
OVCAR-4 ovarian = test system: OVCAR-4 ovarian
786-0 renal = test system: 786-0 renal
TK-10 renal = test system: TK-10 renal
CAKI-1 renal = test system: CAKI-1 renal
MOLT-4 leukemia = test system: MOLT-4 leukemia
MALME-3M melanoma = test system: MALME-3M melanoma
M14 melanoma = test system: M14 melanoma
SK-MEL-28 melanoma = test system: SK-MEL-28 melanoma
HOP-92 NSCLC = test system: HOP-92 NSCLC
OVCAR-5 ovarian = test system: OVCAR-5 ovarian
A498 renal = test system: A498 renal
KM12 colon = test system: KM12 colon
K-562 leukemia = test system: K-562 leukemia
HCC-2998 colon = test system: HCC-2998 colon
OVCAR-8 ovarian = test system: OVCAR-8 ovarian
SR leukemia = test system: SR leukemia
HCT-116 colon = test system: HCT-116 colon

CN1CCN(Cc2ccc(NC(=O)c3cncc(C#Cc4cnc5ccc(N6CCN(C)CC6)nn45)c3)cc2C(F)(F)F)CC1
GI50 (UO-31 renal): 3.75 µM
TGI (UO-31 renal): 14.5 µM
GI50 (EKVX NSCLC): 1300 nM
TGI (EKVX NSCLC): 2840 nM
GI50 (NCI-H226 lung): 436 nM
TGI (NCI-H226 lung): 10.7 µM
GI50 (OVCAR-3 ovarian): 2150 nM
TGI (OVCAR-3 ovarian): 4.11 µM
GI50 (SK-OV-3 ovarian): 15 µM
TGI (SK-OV-3 ovarian): 30.7 µM
GI50 (CCRF-CEM leukemia): 1940 nM
TGI (CCRF-CEM leukemia): 6.47 µM
GI50 (HS 578T breast): 1710 nM
TGI (HS 578T breast): 6.57 µM
GI50 (UACC-62 melanoma): 14.5 µM
TGI (UACC-62 melanoma): 27.8 µM
GI50 (HL-60(TB) leukemia): 2180 nM
TGI (HL-60(TB) leukemia): 4.11 µM
GI50 (SW-620 colon): 2120 nM
TGI (SW-620 colon): 6.99 µM
GI50 (U251 CNS): 1660 nM
TGI (U251 CNS): 3.32 µM
GI50 (NCI-H23 lung): 1370 nM
TGI (NCI-H23 lung): 2960 nM
GI50 (MDA-MB-231 breast): 751 nM
TGI (MDA-MB-231 breast): 2350 nM
GI50 (HCT-15 colon): 1430 nM
TGI (HCT-15 colon): 3.37 µM
GI50 (DU-145 prostate): 1590 nM
TGI (DU-145 prostate): 2940 nM
GI50 (SNB-19 CNS): 2290 nM
TGI (SNB-19 CNS): 4.63 µM
GI50 (LOX IMVI melanoma): 1160 nM
TGI (LOX IMVI melanoma): 2420 nM
GI50 (BT-549 breast): 1440 nM
TGI (BT-549 breast): 2880 nM
GI50 (SNB-75 CNS): 1490 nM
TGI (SNB-75 CNS): 2950 nM
GI50 (MDA-MB-435): 1410 nM
TGI (MDA-MB-435): 3.06 µM
GI50 (RXF 393 renal): 786 nM
TGI (RXF 393 renal): 2080 nM
GI50 (SF-295 CNS): 1470 nM
TGI (SF-295 CNS): 2980 nM
GI50 (UACC-257 melanoma): 4.98 µM
TGI (UACC-257 melanoma): 18.8 µM
GI50 (HT29 colon): 1180 nM
TGI (HT29 colon): 3.43 µM
GI50 (RPMI-8226 leukemia): 2050 nM
TGI (RPMI-8226 leukemia): 7.41 µM
GI50 (SF-539 CNS): 414 nM
TGI (SF-539 CNS): 1740 nM
GI50 (COLO 205 colon): 1580 nM
TGI (COLO 205 colon): 3.63 µM
GI50 (IGROV1 ovarian): 1750 nM
TGI (IGROV1 ovarian): 4.16 µM
GI50 (SN12C renal): 1150 nM
TGI (SN12C renal): 2560 nM
GI50 (PC-3 prostate): 1660 nM
TGI (PC-3 prostate): 5.1 µM
GI50 (MCF7 breast): 835 nM
TGI (MCF7 breast): 2400 nM
GI50 (NCI-H522 lung): 1440 nM
TGI (NCI-H522 lung): 2960 nM
GI50 (NCI/ADR-RES ovarian): 1810 nM
TGI (NCI/ADR-RES ovarian): 3.64 µM
GI50 (NCI-H460 lung): 1870 nM
TGI (NCI-H460 lung): 4.05 µM
GI50 (SK-MEL-5 melanoma): 1530 nM
TGI (SK-MEL-5 melanoma): 2910 nM
GI50 (HOP-62 NSCLC): 2060 nM
TGI (HOP-62 NSCLC): 7.02 µM
GI50 (A549 NSCLC): 1620 nM
TGI (A549 NSCLC): 3.91 µM
GI50 (ACHN renal): 1330 nM
TGI (ACHN renal): 2620 nM
GI50 (SF-268 CNS): 1530 nM
TGI (SF-268 CNS): 3.2 µM
GI50 (T-47D breast): 18 µM
TGI (T-47D breast): 41.8 µM
GI50 (SK-MEL-2 melanoma): 10.7 µM
TGI (SK-MEL-2 melanoma): 23.3 µM
GI50 (OVCAR-4 ovarian): 1230 nM
TGI (OVCAR-4 ovarian): 3.01 µM
GI50 (786-0 renal): 1550 nM
TGI (786-0 renal): 3.11 µM
GI50 (TK-10 renal): 2060 nM
TGI (TK-10 renal): 4.29 µM
GI50 (CAKI-1 renal): 1670 nM
TGI (CAKI-1 renal): 3.28 µM
GI50 (MOLT-4 leukemia): 1330 nM
TGI (MOLT-4 leukemia): 3.51 µM
GI50 (MALME-3M melanoma): 2570 nM
TGI (MALME-3M melanoma): 11.2 µM
GI50 (M14 melanoma): 1580 nM
TGI (M14 melanoma): 3.24 µM
GI50 (SK-MEL-28 melanoma): 11.9 µM
TGI (SK-MEL-28 melanoma): 24.4 µM
GI50 (HOP-92 NSCLC): 1340 nM
TGI (HOP-92 NSCLC): 8.48 µM
GI50 (OVCAR-5 ovarian): 1830 nM
TGI (OVCAR-5 ovarian): 4.22 µM
GI50 (A498 renal): 2130 nM
TGI (A498 renal): 3.61 µM
GI50 (KM12 colon): 29.2 nM
TGI (KM12 colon): 1390 nM
GI50 (K-562 leukemia): 57.6 nM
TGI (K-562 leukemia): 1630 nM
GI50 (HCC-2998 colon): 1640 nM
TGI (HCC-2998 colon): 3.05 µM
GI50 (OVCAR-8 ovarian): 1760 nM
TGI (OVCAR-8 ovarian): 3.63 µM
GI50 (SR leukemia): 781 nM
TGI (SR leukemia): 2920 nM
GI50 (HCT-116 colon): 1050 nM
TGI (HCT-116 colon): 2620 nM
